Measured values as given in publication PMC12430443, “Discovery of Novel Benzamide-Based Sigma-1 Receptor Agonists with Enhanced Selectivity and Safety” (Molecules, 2025).

How the values were obtained:
S1R = target: T1, S1R (Homo sapiens, UniProt Q99720); test: S1R competitive radioligand binding, [3H](+)-pentazocine, Jurkat cell membranes; conditions: for Ki: [3H](+)-pentazocine, mean of 2–3 independent experiments; for Ki / IC50: Jurkat cell membranes; for IC50: [3H]-(+)-pentazocine displacement, n = 2; for Ki (S2R)/ Ki (S1R): selectivity ratio S2R/S1R
T1 construct: For the S1R assay, Jurkat cell membranes (10–20 μg protein/tube) were incubated at 37 °C for 2 h; host or cells: Jurkat cell membranes
Excerpt: (§1) S1R and S2R affinities were classically evaluated through competitive binding assays using radioligands, following the protocol described by Ganapathy et al.. The selective radioligand [^3H] (+)-pentazocine was employed as the classic prototypical ligand, selectively binding to the orthosteric S1R-binding sites. […] Jurkat cell membranes served as the receptor source in both assays. The equilibrium dissociation constants (Ki) for S1R and S2R were derived from the IC50 values of each compound, and selectivity ratios (S2R/S1R) were subsequently calculated (Table 1, Figures S2 and S3).
(§2) Binding assays were performed by Eurofins Cerep (Poitiers, France) according to the protocol of Ganapathy. […] For the S2R assay, Jurkat cell membranes (10–20 μg protein/tube) were incubated at room temperature for 1 h in the same buffer with [^3H]-DTG (25 nM) in the presence of (+)-pentazocine (1 μM) to saturate S1R, along with a range of test compound concentrations. Bound radioactivity was quantified by liquid scintillation counting. Nonspecific binding was determined under identical conditions in the presence of 10 μM unlabeled haloperidol. The IC50 values (concentration causing a half-maximal inhibition of control-specific binding) and Hill coefficients (nH) were determined by non-linear regression analysis of the competition curves generated with mean replicate values using Hill equation curve-fitting. This analysis was performed using software developed at Cerep (Hill software) and validated by comparison with data generated by the commercial software SigmaPlot ®4.0 for Windows® (©1997 by SPSS Inc.). Inhibition constants (Ki) were calculated from IC50 values using the method of Cheng and Prusoff.

S2R = target: T2, S2R (Homo sapiens, UniProt Q5BJF2); test: S2R competitive radioligand binding, [3H]-DTG with excess (+)-pentazocine, Jurkat cell membranes; conditions: for Ki: [3H]-DTG with (+)-pentazocine, mean of 2–3 independent experiments; for IC50: [3H]-DTG displacement with excess (+)-pentazocine, n = 2
T2 construct: For the S2R assay, Jurkat cell membranes (10–20 μg protein/tube) were incubated at room temperature for 1 h; host or cells: Jurkat cell membranes
Excerpt: as §1, §2

[1] = system: SH-SY5Y neuroblastoma cells; test: Cytotoxicity, MTT/MTS assay; type: cell-based, human; conditions: for IC50 (SY5Y)/ Ki (S1R): selectivity index, IC50 was considered > 100 µM
Experimental: (§3) To assess potential cytotoxicity in CNS-relevant cells, human neuroblastoma (SH-SY5Y) cells were exposed to compounds 2–7 at concentrations up to 100 μM. Cell viability was measured using the MTT assay.
(§4) Cytotoxicity was assessed in human SH-SY5Y neuroblastoma cells cultured in Dulbecco’s Modified Eagle Medium (DMEM, Gibco, Thermo Fisher Scientific Inc., Waltham, MA, USA) supplemented with 2 mM L-glutamine, 100 μg/mL streptomycin, 100 IU/mL penicillin, 1 mM non-essential amino acids (all from Invitrogen, Thermo Fisher Scientific Inc., Waltham, MA, USA), and 10% (v/v) heat-inactivated fetal bovine serum (Sigma-Aldrich, Burlington, MA, USA). Cells were maintained at 37 °C in a humidified 5% CO2 atmosphere and serum-starved for 24 h to synchronize cultures before treatment with the test compounds at final concentrations of 100, 50, 10, 5, 1, 0.5, 0.1, or 0.05 μM (all in <0.1% DMSO). […] Absorbance was measured at 490 nm, and the results were expressed as a percentage relative to untreated control cells (set at 100%).

[2] = Cytotoxicity, MTT/MTS assay; type: cell-based, human; conditions: human, SH-SY5Y neuroblastoma cells; percentage of cell death after 24 h treatment at 100 µM (duplicate); read-out: SY5Y % Cytotox
Experimental: as §3, §4

histamine H1 receptor = histamine H1 receptor (Homo sapiens, UniProt P35367); design: method as in PMID 11897056; conditions: 10 µM; cited from earlier work
muscarinic M1 receptor = muscarinic M1 receptor (Homo sapiens, UniProt P11229); design: method as in PMID 11897056; conditions: 10 µM; cited from earlier work
Caco-2 cell line = system: Caco-2 cell line; design: method as in PMID 36233193; conditions: 10 µM, cited from earlier work
[3] = design: method as in PMID 36233193; conditions: 10 µM; cited from earlier work
[4] = design: method as in PMID 36233193; conditions: cited from earlier work
[5] = design: method as in PMID 36233193; conditions: 10 µM; cited from earlier work; remark: listed apart in the source
CYP1A = system: CYP1A; design: method as in PMID 36233193; conditions: at 10 µM; cited from earlier work
CYP2C19 = target: T3, CYP2C19 (Homo sapiens, UniProt P33261); design: method as in PMID 36233193; conditions: at 10 µM; cited from earlier work
T3 construct: tissue Eurofins Cerep (assay provider); host or cells: human liver microsomes

CYP3A = system: CYP3A; design: method as in PMID 36233193; conditions: at 10 µM; cited from earlier work
MRP2 = MRP2 (Homo sapiens, UniProt Q92887); design: method as in PMID 36233193; conditions: at 10 µM; ABC family; cited from earlier work
hERG channel = target: T4, hERG channel (Homo sapiens, UniProt Q12809); design: method as in PMID 36233193; conditions: ratio; cited from earlier work
T4 construct: host or cells: CHO-K1

adrenergic α1a receptor = adrenergic α1a receptor (Homo sapiens, UniProt P35348); test: Off-target panel, aequorin functional assay; type: cell-based; conditions: 10 µM, duplicate; % inhibition of reference agonist activity
Experimental: (§5) Among the synthesized compounds, four derivatives were selected based on their affinity and selectivity profiles. […] The remaining compounds (2, 3, 6, and 7) were assessed for their agonist and antagonist activities across a panel of 58 receptors relevant to CNS disorders, including serotonin, adenosine, adrenergic, cannabinoid, dopamine, histamine, and muscarinic receptors. These assays were conducted at a concentration of 10 µM, in duplicate, utilizing aequorin [19], cAMP HTRF™ [20], and GTPγS binding assays, as detailed in Table 2. […] Specifically, compound 6 antagonized four receptors (5-HT2A, 5-HT2C, α1a, H1), while compound 7 was active against five receptors (5-HT2A, 5-HT3, α1a, H1, M1).
(§6) Rapidly, the tests were performed by Euroscreen (https://euroscreenfast.com/) with recombinant human G-coupled receptor-expressing cell lines using aequorin functional assays for serotonin 5-HT2A, 5-HT2B, 5-HT2C, 5-HT3, and 5-HT5A, adrenergic α1a and α1b, angiotensin AT1, cholesistokinin CCFK1, endothelin ETA, histamine H1, muscarinic M1 and M3, neurokinin NK1 and NK2, vasopressin V1a, and vasoactive intestinal peptide VPAC1 receptor analysis. Then, cAMP HTRF^TM assays were used to analyze serotonin 5-HT1A, 5-HT4E, 5-HT6, and 5-HT7, adenosine A1, A2A, and A3, adrenergic β1 and β2, cannabinoid CB1, dopamine D1, histamine H2, and neuropeptide Y NPY receptors. GTPγS^35 assays were used to analyze serotonin 5-HT1B, adrenergic α2a and α2b, dopamine D2, muscarinic M2 and M4, opioid δ, κ and µ, and somatostatine SST4 receptors.
(§7) Agonist and antagonist activities of the test compound are expressed as the percentage of the activity of the reference agonist at its EC100 concentration or the percentage of inhibition of the reference agonist activity at its EC80 concentration, respectively.
(§8) For the aequorin assays, different cell lines co-expressing the receptors were grown in specific culture media and incubated for 4 h with coelenterazine h. For agonist testing, cell suspensions were mixed with test or reference agonists in a 96-well plate. For antagonist testing, the reference agonist at its EC80 (final concentration) was injected to the mix the containing cells and the tested compound. The resulting emission of light was recorded using the Hamamatsu Functional Drug Screening System 6000 [19].

adrenergic α1b receptor = adrenergic α1b receptor (Homo sapiens, UniProt P35368); test: Off-target panel, aequorin functional assay; type: cell-based; conditions: 10 µM, duplicate; % inhibition of reference agonist activity
Experimental: as §5, §6, §7, §8

[6] = target: serotonin 5-HT2C receptor (Homo sapiens, UniProt P28335); test: Off-target panel, aequorin functional assay; type: cell-based; conditions: 10 µM, duplicate; % inhibition of reference agonist activity
Experimental: as §5, §6, §7, §8

serotonin 5-HT3 receptor = serotonin 5-HT3 receptor (Homo sapiens, UniProt P46098); test: Off-target panel, aequorin functional assay; type: cell-based; conditions: 10 µM, duplicate; % inhibition of reference agonist activity
Experimental: as §5, §6, §7, §8

CXCR1 = CXCR1 (Homo sapiens, UniProt P25024); test: Off-target panel of recombinant human receptors; type: cell-based; conditions: 10 µM, duplicate; % inhibition of reference agonist activity
Experimental: as §5, §7

D4.4 = D4.4 (Homo sapiens, UniProt P21917); test: Off-target panel of recombinant human receptors; type: cell-based; conditions: 10 µM, duplicate; % inhibition of reference agonist activity
Experimental: as §5, §7

S1R-BiP complex = target: T5, S1R-BiP complex (Cricetulus griseus, UniProt A0A3L7I3A5); test: S1R-BiP complex dissociation, co-immunoprecipitation and BiP ELISA in CHO cells; type: cell-based; conditions: for S1R-BiP complex levels: 10 µM
T5 construct: host or cells: CHO cells
Experimental: The interaction between S1R and BiP provides a reliable assay to identify S1R ligands by monitoring the dynamics of the S1R-BiP complex. In this assay, the known S1R agonist PRE-084 and antagonist NE-100 were used as controls (Figure 3).
The ability of the compounds to promote dissociation of the S1R–BiP complex was assessed by Amylgen (Montferrier-sur-Lez, France) as described in [22, 23]. CHO cells were treated with the test compounds for 30 min at 37 °C, followed by crosslinking with dithiobis(succinimidyl propionate) (DSP; Thermo Scientific, Waltham, MA, USA). Cells were lysed after 15 min on ice, and the lysates were centrifuged. Supernatants were incubated overnight at 4 °C with an anti-S1R antibody (Abcam, Cambridge, UK), and then with Protein A-Sepharose (Invitrogen). After the first centrifugation, pellets were resuspended in radioimmunoprecipitation assay (RIPA) buffer, centrifuged again, and resuspended in 2× sample buffer/bMCE buffer. Following a third centrifugation, the supernatants were analyzed for BiP immunoreactivity using an ELISA kit (SEC343Mu, USCNK Life Sciences, Wuhan, China).
Figure 3 In vitro evaluation of agonist activity of compounds 2, 3, and 6: The effects of compounds 2, 3, and 6 at 1 and 10 µM on the S1R-BiP association after 30 min of incubation were analyzed by co-immunoprecipitation using an anti-S1R antibody (red). BiP levels were quantified by ELISA. PRE-084 (white) and NE-100 (black) served as the reference agonist and antagonist, respectively (10 µM). Agonist activity was confirmed by its blockade with NE-100 (black hatching). […] Data represent the mean ± SEM from n = 6 per condition. Statistical significance was assessed using Dunnett’s test: *** p < 0.0001, * p < 0.05 vs. untreated control; ### p < 0.0001, # p < 0.05 for NE-100 blockade.

T5 sequence (A0A3L7I3A5 1-223, one chain of several): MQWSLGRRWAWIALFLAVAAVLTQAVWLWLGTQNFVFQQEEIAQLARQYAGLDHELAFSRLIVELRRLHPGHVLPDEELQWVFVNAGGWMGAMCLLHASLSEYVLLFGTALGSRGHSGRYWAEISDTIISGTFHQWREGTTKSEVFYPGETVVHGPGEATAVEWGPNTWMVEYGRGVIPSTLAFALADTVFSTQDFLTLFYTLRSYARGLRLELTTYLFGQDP
T2 sequence (Q5BJF2 whole entry): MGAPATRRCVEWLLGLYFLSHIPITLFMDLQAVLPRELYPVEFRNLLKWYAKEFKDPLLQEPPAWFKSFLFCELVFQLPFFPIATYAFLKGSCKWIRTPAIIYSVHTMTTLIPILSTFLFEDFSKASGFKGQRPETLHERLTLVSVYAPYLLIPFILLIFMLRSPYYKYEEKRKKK
T1 sequence (Q99720 whole entry): as the sequence (A0A3L7I3A5 1-223, one chain of several) above, with S4A, L5V, I12A, F15L, A25V, N34S, Q39R counted along it
serotonin 5-HT2C receptor, sequence (P28335 33-458): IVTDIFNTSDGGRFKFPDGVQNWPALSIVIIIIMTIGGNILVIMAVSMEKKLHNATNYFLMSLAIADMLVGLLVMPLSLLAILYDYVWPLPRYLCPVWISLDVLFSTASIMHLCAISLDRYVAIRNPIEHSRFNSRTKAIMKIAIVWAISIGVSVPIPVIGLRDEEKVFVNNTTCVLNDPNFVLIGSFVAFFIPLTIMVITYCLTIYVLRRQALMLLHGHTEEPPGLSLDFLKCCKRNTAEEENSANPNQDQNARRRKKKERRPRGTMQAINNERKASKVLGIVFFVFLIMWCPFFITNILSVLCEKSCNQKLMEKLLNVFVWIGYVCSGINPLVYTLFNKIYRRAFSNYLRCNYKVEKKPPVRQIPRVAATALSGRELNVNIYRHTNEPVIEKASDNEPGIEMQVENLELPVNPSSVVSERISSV
adrenergic α1b receptor, sequence (P35368 whole entry): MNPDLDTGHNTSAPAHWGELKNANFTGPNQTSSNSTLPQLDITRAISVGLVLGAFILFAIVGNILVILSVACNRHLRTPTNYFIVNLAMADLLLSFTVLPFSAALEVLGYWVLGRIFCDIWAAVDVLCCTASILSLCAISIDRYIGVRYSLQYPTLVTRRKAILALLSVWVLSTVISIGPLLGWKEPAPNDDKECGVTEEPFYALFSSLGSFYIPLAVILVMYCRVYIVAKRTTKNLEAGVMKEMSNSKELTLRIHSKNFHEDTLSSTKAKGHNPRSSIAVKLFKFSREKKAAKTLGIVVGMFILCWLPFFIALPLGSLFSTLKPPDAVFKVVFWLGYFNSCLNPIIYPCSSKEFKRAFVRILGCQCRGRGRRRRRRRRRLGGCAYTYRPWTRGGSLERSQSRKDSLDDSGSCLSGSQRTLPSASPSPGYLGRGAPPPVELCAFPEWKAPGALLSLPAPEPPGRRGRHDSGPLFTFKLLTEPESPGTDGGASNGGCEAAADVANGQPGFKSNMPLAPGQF
muscarinic M1 receptor, sequence (P11229 whole entry): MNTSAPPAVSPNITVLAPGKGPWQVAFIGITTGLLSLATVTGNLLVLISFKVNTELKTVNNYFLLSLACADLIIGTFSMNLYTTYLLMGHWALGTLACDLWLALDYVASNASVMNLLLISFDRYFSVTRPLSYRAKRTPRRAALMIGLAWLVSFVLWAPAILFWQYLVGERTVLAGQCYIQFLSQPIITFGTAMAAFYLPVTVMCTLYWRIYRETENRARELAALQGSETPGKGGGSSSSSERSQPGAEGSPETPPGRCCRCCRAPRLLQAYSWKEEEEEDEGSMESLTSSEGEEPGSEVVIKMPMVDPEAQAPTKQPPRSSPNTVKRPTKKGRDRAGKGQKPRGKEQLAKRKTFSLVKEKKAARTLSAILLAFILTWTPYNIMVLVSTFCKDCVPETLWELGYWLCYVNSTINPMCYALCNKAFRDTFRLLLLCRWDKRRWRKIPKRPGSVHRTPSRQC
serotonin 5-HT3 receptor, sequence (P46098 24-478): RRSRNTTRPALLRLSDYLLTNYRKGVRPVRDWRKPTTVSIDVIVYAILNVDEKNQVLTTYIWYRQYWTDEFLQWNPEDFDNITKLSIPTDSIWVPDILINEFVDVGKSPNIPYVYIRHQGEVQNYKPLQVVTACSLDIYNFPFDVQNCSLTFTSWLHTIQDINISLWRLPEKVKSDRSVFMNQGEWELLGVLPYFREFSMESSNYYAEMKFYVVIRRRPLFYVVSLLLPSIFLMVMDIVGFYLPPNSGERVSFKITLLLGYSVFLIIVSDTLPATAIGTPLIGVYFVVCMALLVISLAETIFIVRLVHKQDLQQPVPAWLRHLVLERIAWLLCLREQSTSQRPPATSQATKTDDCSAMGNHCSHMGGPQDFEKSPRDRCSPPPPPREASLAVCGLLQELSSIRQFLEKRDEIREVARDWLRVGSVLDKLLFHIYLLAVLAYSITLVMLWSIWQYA
MRP2, sequence (Q92887 whole entry): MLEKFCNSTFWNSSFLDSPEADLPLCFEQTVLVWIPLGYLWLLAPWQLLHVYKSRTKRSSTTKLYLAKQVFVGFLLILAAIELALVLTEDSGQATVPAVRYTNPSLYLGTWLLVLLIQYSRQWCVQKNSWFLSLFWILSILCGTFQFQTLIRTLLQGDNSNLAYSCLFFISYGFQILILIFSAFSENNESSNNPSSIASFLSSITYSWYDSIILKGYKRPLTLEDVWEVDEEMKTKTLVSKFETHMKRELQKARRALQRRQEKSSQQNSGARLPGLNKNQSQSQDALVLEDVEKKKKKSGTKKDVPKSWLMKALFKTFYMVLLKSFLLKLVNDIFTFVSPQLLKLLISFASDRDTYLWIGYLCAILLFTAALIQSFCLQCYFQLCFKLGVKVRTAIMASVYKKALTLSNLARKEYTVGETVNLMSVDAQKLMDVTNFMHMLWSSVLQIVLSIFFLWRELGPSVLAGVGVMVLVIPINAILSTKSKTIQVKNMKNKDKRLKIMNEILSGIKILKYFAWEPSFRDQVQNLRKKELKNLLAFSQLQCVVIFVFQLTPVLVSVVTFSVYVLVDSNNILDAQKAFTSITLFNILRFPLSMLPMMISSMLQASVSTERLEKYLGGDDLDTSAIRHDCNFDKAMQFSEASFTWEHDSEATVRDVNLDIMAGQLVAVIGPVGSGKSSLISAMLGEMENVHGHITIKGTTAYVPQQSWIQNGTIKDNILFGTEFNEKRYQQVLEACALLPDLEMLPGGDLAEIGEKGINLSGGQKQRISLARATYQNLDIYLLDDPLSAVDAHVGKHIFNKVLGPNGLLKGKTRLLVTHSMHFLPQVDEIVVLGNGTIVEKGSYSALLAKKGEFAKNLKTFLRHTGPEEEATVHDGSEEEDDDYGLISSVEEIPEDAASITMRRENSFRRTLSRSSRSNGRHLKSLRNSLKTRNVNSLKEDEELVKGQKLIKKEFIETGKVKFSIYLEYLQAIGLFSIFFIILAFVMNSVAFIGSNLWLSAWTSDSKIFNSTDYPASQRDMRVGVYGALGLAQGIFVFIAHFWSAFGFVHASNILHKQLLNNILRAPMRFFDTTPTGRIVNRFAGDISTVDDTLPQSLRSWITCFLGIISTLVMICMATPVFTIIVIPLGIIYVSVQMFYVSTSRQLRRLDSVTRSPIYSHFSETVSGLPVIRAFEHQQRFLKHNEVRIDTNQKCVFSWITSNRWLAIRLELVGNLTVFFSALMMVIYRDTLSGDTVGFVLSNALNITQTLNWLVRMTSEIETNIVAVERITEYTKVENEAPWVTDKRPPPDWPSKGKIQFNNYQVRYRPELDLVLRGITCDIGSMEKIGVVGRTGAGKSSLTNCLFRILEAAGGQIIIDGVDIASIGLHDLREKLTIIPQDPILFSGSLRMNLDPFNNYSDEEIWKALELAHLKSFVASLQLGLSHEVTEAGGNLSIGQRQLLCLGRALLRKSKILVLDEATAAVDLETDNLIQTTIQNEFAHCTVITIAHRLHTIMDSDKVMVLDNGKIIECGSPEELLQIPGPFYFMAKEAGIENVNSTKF
T3 sequence (P33261 whole entry): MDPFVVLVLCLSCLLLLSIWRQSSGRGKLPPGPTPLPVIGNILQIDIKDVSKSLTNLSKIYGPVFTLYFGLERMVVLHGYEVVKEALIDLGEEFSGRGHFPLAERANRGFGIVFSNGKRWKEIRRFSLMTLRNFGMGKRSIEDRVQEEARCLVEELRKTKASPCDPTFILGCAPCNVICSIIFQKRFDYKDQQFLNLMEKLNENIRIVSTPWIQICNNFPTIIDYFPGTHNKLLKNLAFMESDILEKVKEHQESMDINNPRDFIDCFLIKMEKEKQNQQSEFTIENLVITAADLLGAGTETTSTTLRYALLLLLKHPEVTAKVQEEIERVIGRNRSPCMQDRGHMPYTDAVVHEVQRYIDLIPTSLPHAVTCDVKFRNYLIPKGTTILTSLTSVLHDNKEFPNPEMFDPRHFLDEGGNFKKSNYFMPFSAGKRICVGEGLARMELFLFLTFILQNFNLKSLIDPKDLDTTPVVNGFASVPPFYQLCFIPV
adrenergic α1a receptor, sequence (P35348 whole entry): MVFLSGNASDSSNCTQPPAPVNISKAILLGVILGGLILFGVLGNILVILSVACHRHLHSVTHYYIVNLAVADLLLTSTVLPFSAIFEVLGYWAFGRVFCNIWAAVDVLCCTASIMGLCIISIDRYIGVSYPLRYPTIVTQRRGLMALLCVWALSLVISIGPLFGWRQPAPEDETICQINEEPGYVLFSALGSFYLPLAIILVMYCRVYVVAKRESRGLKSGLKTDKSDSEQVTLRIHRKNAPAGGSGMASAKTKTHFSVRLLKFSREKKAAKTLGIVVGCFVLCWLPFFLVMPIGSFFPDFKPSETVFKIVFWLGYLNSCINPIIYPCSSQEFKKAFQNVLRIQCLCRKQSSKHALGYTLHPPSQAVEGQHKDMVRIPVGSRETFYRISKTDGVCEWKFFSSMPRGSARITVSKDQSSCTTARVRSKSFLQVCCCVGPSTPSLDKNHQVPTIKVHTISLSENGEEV

Compound: 3-(Benzylmethylamino)-N-(3-bromobenzyl)propanamide [Compound 4]
- Ki (S1R): > 200 nM
- Ki (S2R): > 200 nM
- SY5Y % Cytotox ([1]; 100 µM): 6%

Compound: CN(CCCNC(=O)c1ccc(Cl)cc1)Cc1ccccc1 [Compound 1]
- Ki (S1R): 3.2 nM
- IC50 (S1R): 6.3 nM
- IC50 (S2R): 255 nM
- Ki (S2R): 190 nM
- cytotoxicity at 24 h, 100 µM [2]: 28%
- IC50 (SY5Y)/ Ki (S1R) [1]: >31,250
- H1 activity (in words) (histamine H1 receptor): no activity
- M1 antagonist activity (in words) (muscarinic M1 receptor): antagonist activity
- Permeability A/B pH7.4/7.4 (Caco-2 cell line; Caco-2): 29.1 ×10^−6 cm/s
- Permeability B/A pH7.4/7.4 (Caco-2 cell line; Caco-2): 66.1 ×10^−6 cm/s
- e-ratio (Caco-2 cell line; efflux ratio Papp(B→A)/Papp(A→B)): 2.3
- Plasma protein binding [3]: 94%
- Mouse plasma t1/2 [4]: 25.9 h
- Human liver microsome half-life t1/2 [5]: >1 h
- CYP inhibition 1A (CYP1A): 2.1%
- CYP inhibition 2C19 (CYP2C19): 36.2%
- CYP inhibition 3A (CYP3A): 36.9%
- Drug transport inhibition MRP2 (MRP2): −18.6%
- IC50 (hERG)/Ki (σ1) (hERG channel): 312

Compound: CN(CCC(=O)NCc1ccc(Cl)cc1)Cc1ccccc1 [Compound 3, 3-(Benzylmethylamino)-N-(4-chlorobenzyl)propanamide]
- IC50 (S1R): 3.3 nM
- Ki (S2R)/ Ki (S1R) (S1R): 241
- IC50 (S2R): 540 nM
- cytotoxicity at 24 h, 100 µM [2]: 1%
- IC50 (SY5Y)/ Ki (S1R) [1]: >58,823
- α1a [b] antagonist activity (adrenergic α1a receptor): 88%
- α1b [b] antagonist activity (adrenergic α1b receptor): 65%
- 5-HT2C [b] antagonist activity [6]: 76%
- 5-HT3 [b] antagonist activity (serotonin 5-HT3 receptor): 72%
- CXCR1 [b] antagonist activity (CXCR1): 54%
- D4.4 [b] antagonist activity (D4.4): 84%
- Dissociation of the S1R-BiP complex (in words) (S1R-BiP complex; 1 and 10 µM, 30 min incubation, CHO cells, n = 6): significant, dose-dependent dissociation
- Dissociation of S1R-BiP complex in the presence of NE-100 (in words) (S1R-BiP complex; co-treatment with NE-100 (10 µM)): completely inhibited

Compound: CN(CCC(=O)NCc1ccc(Cl)cc1Cl)Cc1ccccc1 [Compound 5, 3-(Benzylmethylamino)-N-(2,4-Dichlorobenzyl)propanamide]
- IC50 (S1R): 4.5 nM
- Ki (S2R)/ Ki (S1R) (S1R): 52
- IC50 (S2R): 160 nM
- cytotoxicity at 24 h, 100 µM [2]: 37%
- IC50 (SY5Y)/ Ki (S1R) [1]: >43,478

Compound: CN(CCC(=O)NCc1ccc([N+](=O)[O-])cc1)Cc1ccccc1 [Compound 7, 3-(Benzylmethylamino)-N-(4-Nitrobenzyl)propanamide]
- Ki (S1R): 110 nM
- IC50 (S1R): 220 nM
- Ki (S2R)/ Ki (S1R) (S1R): 59
- IC50 (S2R): 8600 nM
- cytotoxicity at 24 h, 100 µM [2]: 9%
- IC50 (SY5Y)/ Ki (S1R) [1]: >909

Compound: CCCN(CCC)CCc1ccc(OC)c(OCCc2ccccc2)c1 [NE-100, reference compound]
- S1R-BiP complex levels (S1R-BiP complex; 30 min incubation, CHO cells): 90–100 % of the control

Compound: O=C(OCCN1CCOCC1)C1(c2ccccc2)CCCCC1 [PRE-084, reference compound]
- S1R-BiP complex levels (S1R-BiP complex; 30 min incubation, CHO cells): less than 50 % of the control
